# Source: PubChem BioAssay (NCI)
#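 Step 1: Grow cells in 96-well plates. Step 2: Expose to compound for 48 hours at 5 concentrations. Step 3: Interpolate endpoints linearly; if unreached, use highest concentration. At the TGI there is no net growth.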
# Tests used:
# Assay in all cases: inhibition of tumour cell growth, NCI panel, 48 h
# SK-MEL-2 melanoma = system: SK-MEL-2 melanoma
# CAKI-1 renal = system: CAKI-1 renal
# LOX IMVI melanoma = system: LOX IMVI melanoma
# EKVX NSCLC = system: EKVX NSCLC
# HCT-15 colon = system: HCT-15 colon
# SK-MEL-5 melanoma = system: SK-MEL-5 melanoma
# SW-620 colon = system: SW-620 colon
# NCI-H226 lung = system: NCI-H226 lung
# OVCAR-4 ovarian = system: OVCAR-4 ovarian
# HL-60(TB) leukemia = system: HL-60(TB) leukemia
# T-47D breast = system: T-47D breast
# BT-549 breast = system: BT-549 breast
# RXF 393 renal = system: RXF 393 renal
# K-562 leukemia = system: K-562 leukemia
# HT29 colon = system: HT29 colon
# SK-OV-3 ovarian = system: SK-OV-3 ovarian
# HCC-2998 colon = system: HCC-2998 colon
# TK-10 renal = system: TK-10 renal
# MDA-MB-231 breast = system: MDA-MB-231 breast
# SNB-75 CNS = system: SNB-75 CNS
# SR leukemia = system: SR leukemia
# 786-0 renal = system: 786-0 renal
# ACHN renal = system: ACHN renal
# A498 renal = system: A498 renal
# UACC-62 melanoma = system: UACC-62 melanoma
# MDA-N = system: MDA-N
# OVCAR-8 ovarian = system: OVCAR-8 ovarian
# HOP-92 NSCLC = system: HOP-92 NSCLC
# HOP-62 NSCLC = system: HOP-62 NSCLC
# A549 NSCLC = system: A549 NSCLC
# MDA-MB-435 = system: MDA-MB-435
# SF-295 CNS = system: SF-295 CNS
# NCI-H522 lung = system: NCI-H522 lung
# MALME-3M melanoma = system: MALME-3M melanoma
# NCI/ADR-RES ovarian = system: NCI/ADR-RES ovarian
# M14 melanoma = system: M14 melanoma
# UACC-257 melanoma = system: UACC-257 melanoma
# UO-31 renal = system: UO-31 renal
# KM12 colon = system: KM12 colon
# U251 CNS = system: U251 CNS
# NCI-H23 lung = system: NCI-H23 lung
# NCI-H460 lung = system: NCI-H460 lung
# SF-539 CNS = system: SF-539 CNS
# RPMI-8226 leukemia = system: RPMI-8226 leukemia
# SF-268 CNS = system: SF-268 CNS
# HCT-116 colon = system: HCT-116 colon
# SN12C renal = system: SN12C renal
# MOLT-4 leukemia = system: MOLT-4 leukemia
# OVCAR-5 ovarian = system: OVCAR-5 ovarian
# MCF7 breast = system: MCF7 breast
# SK-MEL-28 melanoma = system: SK-MEL-28 melanoma
# IGROV1 ovarian = system: IGROV1 ovarian
# COLO 205 colon = system: COLO 205 colon
# HS 578T breast = system: HS 578T breast
# SNB-19 CNS = system: SNB-19 CNS
# PC-3 prostate = system: PC-3 prostate
# DU-145 prostate = system: DU-145 prostate
# CCRF-CEM leukemia = system: CCRF-CEM leukemia
# OVCAR-3 ovarian = system: OVCAR-3 ovarian
structure (smiles),measurement,setting,value
COC(=O)C1=C(O)C(C(=O)OC)[C@]2(O)[C@H](C(=O)OC)[C@H]1C[C@@H](c1cccc(OC)c1)[C@H]2C(=O)OC (stereo not given in full),TGI,SK-MEL-2 melanoma,44.5 µM
same,TGI,CAKI-1 renal,73.3 µM
same,TGI,LOX IMVI melanoma,> 100 µM
same,TGI,EKVX NSCLC,> 100 µM
same,TGI,HCT-15 colon,86.3 µM
same,TGI,SK-MEL-5 melanoma,> 100 µM
same,TGI,SW-620 colon,> 100 µM
same,TGI,NCI-H226 lung,> 100 µM
same,TGI,OVCAR-4 ovarian,96.4 µM
same,TGI,HL-60(TB) leukemia,> 100 µM
same,TGI,T-47D breast,> 100 µM
same,TGI,BT-549 breast,> 100 µM
same,TGI,RXF 393 renal,43.1 µM
same,TGI,K-562 leukemia,> 100 µM
same,TGI,HT29 colon,> 100 µM
same,TGI,SK-OV-3 ovarian,66.6 µM
same,TGI,HCC-2998 colon,42.7 µM
same,TGI,TK-10 renal,> 100 µM
same,TGI,MDA-MB-231 breast,78.3 µM
same,TGI,SNB-75 CNS,> 100 µM
same,TGI,SR leukemia,> 100 µM
same,TGI,786-0 renal,56.1 µM
same,TGI,ACHN renal,40.4 µM
same,TGI,A498 renal,55.9 µM
same,TGI,UACC-62 melanoma,35.1 µM
same,TGI,MDA-N,64.4 µM
same,TGI,OVCAR-8 ovarian,> 100 µM
same,TGI,HOP-92 NSCLC,> 100 µM
same,TGI,HOP-62 NSCLC,89.5 µM
same,TGI,A549 NSCLC,75.3 µM
same,TGI,MDA-MB-435,55.2 µM
same,TGI,SF-295 CNS,> 100 µM
same,TGI,NCI-H522 lung,33.3 µM
same,TGI,MALME-3M melanoma,> 100 µM
same,TGI,NCI/ADR-RES ovarian,> 100 µM
same,TGI,M14 melanoma,> 100 µM
same,TGI,UACC-257 melanoma,> 100 µM
same,TGI,UO-31 renal,34.7 µM
same,TGI,KM12 colon,69.8 µM
same,TGI,U251 CNS,68.7 µM
same,TGI,NCI-H23 lung,> 100 µM
same,TGI,NCI-H460 lung,65.7 µM
same,TGI,SF-539 CNS,> 100 µM
same,TGI,RPMI-8226 leukemia,> 100 µM
same,TGI,SF-268 CNS,> 100 µM
same,TGI,HCT-116 colon,65.6 µM
same,TGI,SN12C renal,65.7 µM
same,TGI,MOLT-4 leukemia,> 100 µM
same,TGI,OVCAR-5 ovarian,66.4 µM
same,TGI,MCF7 breast,> 100 µM
same,TGI,SK-MEL-28 melanoma,> 100 µM
same,TGI,IGROV1 ovarian,> 100 µM
same,TGI,COLO 205 colon,> 100 µM
same,TGI,HS 578T breast,55 µM
same,TGI,SNB-19 CNS,81.7 µM
O=C1c2n[nH]nc2C(=O)c2n[nH]nc21,TGI,SK-MEL-2 melanoma,> 100 µM
same,TGI,CAKI-1 renal,> 100 µM
same,TGI,LOX IMVI melanoma,> 100 µM
same,TGI,EKVX NSCLC,> 100 µM
same,TGI,HCT-15 colon,> 100 µM
same,TGI,SK-MEL-5 melanoma,> 100 µM
same,TGI,PC-3 prostate,> 100 µM
same,TGI,SW-620 colon,> 100 µM
same,TGI,NCI-H226 lung,> 100 µM
same,TGI,DU-145 prostate,> 100 µM
same,TGI,OVCAR-4 ovarian,> 100 µM
same,TGI,HL-60(TB) leukemia,> 100 µM
same,TGI,T-47D breast,> 100 µM
same,TGI,RXF 393 renal,> 100 µM
same,TGI,K-562 leukemia,> 100 µM
same,TGI,HT29 colon,> 100 µM
same,TGI,SK-OV-3 ovarian,> 100 µM
same,TGI,HCC-2998 colon,> 100 µM
same,TGI,TK-10 renal,> 100 µM
same,TGI,MDA-MB-231 breast,> 100 µM
same,TGI,SNB-75 CNS,> 100 µM
same,TGI,SR leukemia,> 100 µM
same,TGI,786-0 renal,> 100 µM
same,TGI,ACHN renal,> 100 µM
same,TGI,A498 renal,> 100 µM
same,TGI,UACC-62 melanoma,> 100 µM
same,TGI,MDA-N,> 100 µM
same,TGI,OVCAR-8 ovarian,> 100 µM
same,TGI,HOP-92 NSCLC,> 100 µM
same,TGI,HOP-62 NSCLC,> 100 µM
same,TGI,A549 NSCLC,> 100 µM
same,TGI,MDA-MB-435,> 100 µM
same,TGI,SF-295 CNS,> 100 µM
same,TGI,NCI-H522 lung,> 100 µM
same,TGI,NCI/ADR-RES ovarian,> 100 µM
same,TGI,M14 melanoma,> 100 µM
same,TGI,UACC-257 melanoma,> 100 µM
same,TGI,UO-31 renal,> 100 µM
same,TGI,KM12 colon,> 100 µM
same,TGI,U251 CNS,> 100 µM
same,TGI,CCRF-CEM leukemia,> 100 µM
same,TGI,NCI-H23 lung,> 100 µM
same,TGI,NCI-H460 lung,> 100 µM
same,TGI,OVCAR-3 ovarian,> 100 µM
same,TGI,SF-539 CNS,> 100 µM
same,TGI,RPMI-8226 leukemia,> 100 µM
same,TGI,SF-268 CNS,> 100 µM
same,TGI,HCT-116 colon,> 100 µM
same,TGI,SN12C renal,> 100 µM
same,TGI,MOLT-4 leukemia,> 100 µM
same,TGI,OVCAR-5 ovarian,> 100 µM
same,TGI,MCF7 breast,> 100 µM
same,TGI,SK-MEL-28 melanoma,> 100 µM
same,TGI,IGROV1 ovarian,> 100 µM
same,TGI,COLO 205 colon,> 100 µM
same,TGI,HS 578T breast,> 100 µM
same,TGI,SNB-19 CNS,> 100 µM
N#Cc1ccc(OC(=O)c2ccc(N=C(N)N)cc2)cc1,TGI,SK-MEL-2 melanoma,> 100 µM
same,TGI,CAKI-1 renal,> 100 µM
same,TGI,LOX IMVI melanoma,> 100 µM
same,TGI,EKVX NSCLC,> 100 µM
same,TGI,HCT-15 colon,> 100 µM
same,TGI,SK-MEL-5 melanoma,> 100 µM
same,TGI,PC-3 prostate,> 100 µM
same,TGI,SW-620 colon,> 100 µM
same,TGI,NCI-H226 lung,> 100 µM
same,TGI,DU-145 prostate,> 100 µM
same,TGI,OVCAR-4 ovarian,> 100 µM
same,TGI,HL-60(TB) leukemia,> 100 µM
same,TGI,T-47D breast,> 100 µM
same,TGI,BT-549 breast,> 100 µM
same,TGI,RXF 393 renal,> 100 µM
same,TGI,K-562 leukemia,> 100 µM
same,TGI,HT29 colon,> 100 µM
same,TGI,SK-OV-3 ovarian,> 100 µM
same,TGI,TK-10 renal,> 100 µM
same,TGI,MDA-MB-231 breast,> 100 µM
same,TGI,SNB-75 CNS,> 100 µM
same,TGI,SR leukemia,> 100 µM
same,TGI,786-0 renal,> 100 µM
same,TGI,ACHN renal,> 100 µM
same,TGI,A498 renal,> 100 µM
same,TGI,UACC-62 melanoma,> 100 µM
same,TGI,MDA-N,> 100 µM
same,TGI,OVCAR-8 ovarian,> 100 µM
same,TGI,HOP-92 NSCLC,> 100 µM
same,TGI,HOP-62 NSCLC,> 100 µM
same,TGI,A549 NSCLC,> 100 µM
same,TGI,MDA-MB-435,> 100 µM
same,TGI,SF-295 CNS,> 100 µM
same,TGI,NCI-H522 lung,> 100 µM
same,TGI,MALME-3M melanoma,> 100 µM
same,TGI,NCI/ADR-RES ovarian,> 100 µM
same,TGI,M14 melanoma,> 100 µM
same,TGI,UACC-257 melanoma,> 100 µM
same,TGI,UO-31 renal,> 100 µM
same,TGI,KM12 colon,> 100 µM
same,TGI,U251 CNS,> 100 µM
same,TGI,CCRF-CEM leukemia,54.8 µM
same,TGI,NCI-H23 lung,> 100 µM
same,TGI,NCI-H460 lung,> 100 µM
same,TGI,OVCAR-3 ovarian,> 100 µM
same,TGI,SF-539 CNS,> 100 µM
same,TGI,RPMI-8226 leukemia,> 100 µM
same,TGI,SF-268 CNS,> 100 µM
same,TGI,HCT-116 colon,> 100 µM
same,TGI,SN12C renal,> 100 µM
same,TGI,MOLT-4 leukemia,> 100 µM
same,TGI,OVCAR-5 ovarian,> 100 µM
same,TGI,MCF7 breast,> 100 µM
same,TGI,SK-MEL-28 melanoma,> 100 µM
same,TGI,IGROV1 ovarian,> 100 µM
same,TGI,COLO 205 colon,> 100 µM
same,TGI,HS 578T breast,> 100 µM
same,TGI,SNB-19 CNS,> 100 µM
